Earlier results on two compounds are cited in patent publication US4826982A, “Quinolonecarboxylic acid derivatives” (Kyorin Pharmaceutical Co., Ltd., priority 1985, dated 1989).

The test system of one series is gram-negative bacteria. The note with it: background art; CI-934 compared with Norfloxacin and Ciprofloxacin; cited from earlier work.
Another series deals with gram-positive bacteria. The note with it: background art; cited from earlier work.

Turning to `CCNCC1CCN(c2c(F)cc3c(=O)c(C(=O)O)cn(CC)c3c2F)C1` (stereo not shown) [CI-934, 1-ethyl-7-[3-[(ethylamino)methyl]-1-pyrrolidinyl]-6,8-difluoro-1,4-dihydro-4-oxo-3-quinolinecarboxylic acid], the “activity against gram-negative bacteria” value in the series with gram-negative bacteria is “weaker activity against gram-negative bacteria than such known compounds as Norfloxacin and Ciprofloxacin”. Further, the “activity against gram-positive bacteria” value with gram-positive bacteria was “relatively strong activity against gram-positive bacteria”.
Turning to `CCn1cc(C(=O)O)c(=O)c2cc(F)c(N3CCNCC3)cc21` [Norfloxacin], the “activity against gram-negative bacteria” value in the series with gram-negative bacteria was “effective”. Further, the “activity against gram-positive bacteria” value in the series with gram-positive bacteria is given as “effective”.
